Results reported in patent US7482344B2, “Tricyclic steroid hormone nuclear receptor modulators” (Eli Lilly and Company, priority 2003, dated 2009).

Assays:
glucocorticoid receptor = molecular target: T1, glucocorticoid receptor (Homo sapiens, UniProt P04150); test: Glucocorticoid Receptor Binding Assay (Method 1), [3H]-dexamethasone competition in A549 cell extract; conditions: 1.86 nM [3H]-dexamethasone, read-out: GR Ki (nM) Method 1
T1 construct: host or cells: A549 human lung epithelial cells
T1 sequence (P04150 1-777): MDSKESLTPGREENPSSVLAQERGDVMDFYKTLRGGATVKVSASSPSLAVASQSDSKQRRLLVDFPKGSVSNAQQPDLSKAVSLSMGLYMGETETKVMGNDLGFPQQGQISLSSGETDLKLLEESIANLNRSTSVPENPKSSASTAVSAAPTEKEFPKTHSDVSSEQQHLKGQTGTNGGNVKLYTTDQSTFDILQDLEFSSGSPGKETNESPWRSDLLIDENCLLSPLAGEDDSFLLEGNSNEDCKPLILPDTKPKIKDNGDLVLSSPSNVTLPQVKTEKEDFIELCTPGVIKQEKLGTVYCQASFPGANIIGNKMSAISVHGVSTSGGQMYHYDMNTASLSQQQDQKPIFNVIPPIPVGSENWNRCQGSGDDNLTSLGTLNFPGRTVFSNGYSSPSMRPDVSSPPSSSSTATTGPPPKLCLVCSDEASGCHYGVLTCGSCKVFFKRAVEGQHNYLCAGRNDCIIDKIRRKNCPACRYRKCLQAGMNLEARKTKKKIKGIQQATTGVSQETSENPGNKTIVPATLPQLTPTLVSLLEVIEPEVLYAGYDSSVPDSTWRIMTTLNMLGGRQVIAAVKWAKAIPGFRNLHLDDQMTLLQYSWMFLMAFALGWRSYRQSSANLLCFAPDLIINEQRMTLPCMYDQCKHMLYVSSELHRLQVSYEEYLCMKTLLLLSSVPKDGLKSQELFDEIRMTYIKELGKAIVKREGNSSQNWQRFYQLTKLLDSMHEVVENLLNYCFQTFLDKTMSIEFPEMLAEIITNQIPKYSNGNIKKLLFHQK
Experimental: Glucocorticoid Receptor Binding Assay (Method 1):
A549 human lung epithelial cells (ATCC) are grown at a scale where gram quantity cell pellets are obtained. Harvested cell pellets are washed twice in cold phosphate buffered saline, centrifuged, and resuspended in cold assay binding buffer. The assay binding buffer consists of 10% glycerol, 50 mM Tris-HCl (pH7.2), 75 mM sodium chloride, 1.5 mM magnesium chloride, 1.5 mM EDTA, and 10 mM sodium molybdate. Cell suspensions were lysed via sonication, centrifuged, and the “extract” supernatant is snap frozen and stored at −80 C. until needed.
GR binding assays are performed in a final volume of 140 ul containing 50-200 ug of A549 cell extract and 1.86 nM [^3H]-dexamethasone (Amersham) plus varying concentrations of test compound or vehicle. Briefly, assays are prepared at RT in 96-well Fisher 3356 plates, each well containing 100 ul of A549 cell extract, 20 ul of [^3H]-dexamethasone, and 20 ul of test compound/vehicle. Incubations are carried out at 4 degrees Celsius for 16 hours. After incubation, 70 ul of 3× dextran-coated charcoal solution is added to each reaction, mixed, and incubated for 8 minutes at RT. 3×-dextran-coated charcoal solution consists of 250 ml assay binding buffer, 3.75 g Norit A charcoal (Sigma), and 1.25 g dextran T-70 (Amersham). Charcoal/unbound radioligand complexes are removed by centrifugation of the plate and 140 ul of supernatant from each well is transferred to another 96 well Optiplate (Packard Instruments). 200 ul of Microscint-20 scinillant (Packard Instruments) is added to each well and amount of receptor bound radioligand is determined using Packard Instruments TopCount instrument.

MR [1] = molecular target: T2, MR (Homo sapiens, UniProt P08235); test: Mineralocorticoid Receptor Binding Assay (Method 1), [3H]-aldosterone competition; set-up: The full length human MR gene is cloned from a human kidney or human brain cDNA library; made in house; host or cells: SF9 insect cells (pAcHLT baculovirus transfer vector); conditions: human MR expressed in Sf9 cells, 0.5 nM [3H]-aldosterone
T2 sequence (P08235 1-984): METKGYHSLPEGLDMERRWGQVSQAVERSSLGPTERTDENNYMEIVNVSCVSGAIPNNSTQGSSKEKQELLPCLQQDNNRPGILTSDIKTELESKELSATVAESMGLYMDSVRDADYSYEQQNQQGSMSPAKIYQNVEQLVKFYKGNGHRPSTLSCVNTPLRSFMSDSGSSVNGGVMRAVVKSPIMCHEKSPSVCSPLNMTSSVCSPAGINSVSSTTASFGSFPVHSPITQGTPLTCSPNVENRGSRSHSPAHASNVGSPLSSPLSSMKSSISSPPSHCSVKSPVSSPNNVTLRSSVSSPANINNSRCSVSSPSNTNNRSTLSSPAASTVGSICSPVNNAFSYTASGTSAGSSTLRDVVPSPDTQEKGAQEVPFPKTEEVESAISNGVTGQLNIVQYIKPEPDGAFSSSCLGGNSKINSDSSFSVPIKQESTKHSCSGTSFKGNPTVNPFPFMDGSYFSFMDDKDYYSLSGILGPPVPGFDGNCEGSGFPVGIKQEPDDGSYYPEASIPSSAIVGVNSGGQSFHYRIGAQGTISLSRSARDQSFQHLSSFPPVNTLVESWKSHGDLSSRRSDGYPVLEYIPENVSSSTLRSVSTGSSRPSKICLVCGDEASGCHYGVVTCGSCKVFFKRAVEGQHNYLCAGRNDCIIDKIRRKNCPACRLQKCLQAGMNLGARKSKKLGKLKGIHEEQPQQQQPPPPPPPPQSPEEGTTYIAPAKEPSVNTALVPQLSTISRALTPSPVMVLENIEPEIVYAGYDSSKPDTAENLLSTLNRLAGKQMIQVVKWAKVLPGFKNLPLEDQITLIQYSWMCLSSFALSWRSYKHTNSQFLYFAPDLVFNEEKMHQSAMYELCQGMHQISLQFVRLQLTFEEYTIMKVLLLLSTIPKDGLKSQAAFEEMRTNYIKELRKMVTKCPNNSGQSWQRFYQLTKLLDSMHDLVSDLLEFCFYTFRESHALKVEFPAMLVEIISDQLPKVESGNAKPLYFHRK
Experimental: Mineralocorticoid Receptor Binding Assay (Method 1):
The full length human MR gene is cloned from a human kidney or human brain cDNA library. Briefly, using synthetic oligonucleotide primers (Eli Lilly and Company, Indianapolis) directed to nucleotides 20-54 and 3700-3666 of the human MR, polymerase chain reaction (PCR) is performed under standard conditions using a human cDNA library. The PCR reaction is performed in a final volume of 50 μl containing about 1μl of a 50× stock solution of polymerase; about 1 μl of a 50× stock solution of dNTP; about 5μl of an appropriate PCR buffer; about 1 μl of each primer; about 5 μl of a H. kidney or H. brain cDNA library; and about 36 μl of water. The reaction is allowed to denature for about 30 seconds at 95 degrees Celsius, anneal for about 30 seconds at 55 degrees Celsius, and extend for about 5 minutes at 72 degrees Celsius, the sequence being repeated for a total of about 35 cycles. The desired PCR product (3.68 Kb) is confirmed by gel electrophoresis and subsequently cut from the gel and stored at about −20 degrees Celsius until extraction. To extract the cDNA product from the agarose gel, the QIAEX II Gel Extraction protocol (QIAGEN, Inc.) is employed according to the manufacturer's instructions. Following extraction, the MR cDNA is cloned into an appropriate cloning vector (Zero Blunt TOPO PCR Cloning Kit (Invitrogen, Inc.) and a pAcHLT-baculovirus transfer vector (B.D./Pharminogen), then expressed in SF9 insect cells, essentially according to manufacturer's instructions. Sf9 cells are grown at a scale where gram quantity cell pellets are obtained for subsequent use in the MR binding assay. Harvested cell pellets are lysed by repeated freeze-thaw cycles (about 4) in a suitable lysis buffer then centrifuged at about 1×10^3G (with the supernatant being saved for future assays).
MR binding assays are performed in a final total volume of about 250 μl containing about 20-25 μg of protein and 0.5 nM of [^3H]-aldosterone plus varying concentrations of test compound or vehicle. The assay binding buffer consists of 30 mM sodium molybdate, 30 mM of TRIS-HCl, 5 mM sodium phosphate, 5 mM sodium pyrophosphate, and about 10% glycerol, pH=7.5.
Briefly, assays are prepared at RT in 96-well Falcon 3072 plates, each well containing 210 μof binding buffer, 10 μl of […], 10 μl of test compound/vehicle, and 20 μl of the resuspended receptor protein extract. Incubations are carried out at 4 degrees Celsius with shaking for about 16 hours. 200 μl aliquots of each incubation are filtered onto Millipore HA 0.45 micron 96-well filter plates, pre-moistened with cold 30 mM TRIS-HCl. The filter plates are suctioned dry with vacuum and immediately washed 3× with cold 30 mM TRIS-HCl. The plates are then punched out and the amount of receptor-ligand complex is determined by liquid scintillation counting using 4 ml of Ready Protein Plus™ liquid scintillation cocktail.

MR [2] = molecular target: T2, MR; set-up: host or cells: patients with advanced CHF; conditions: in combination with standard CHF therapy, patients suffering from advanced CHF; cited from earlier work

Structure (SMILES): Oc1cccc(C=C2c3ccccc3Cc3ccccc32)c1 [Example 19, 3-(10H-Anthracen-9-ylidenemethyl)-phenol]
- Ki (glucocorticoid receptor): < 10000 nM
- melting point: 195.8 °C
- Ki (MR [1]): < 500 nM

Structure (SMILES): CC(C)n1c(=O)[nH]c2cc(C=C3c4ccccc4Sc4ccccc43)ccc21 [Example 16]
- Ki (MR [1]): < 500 nM

Structure (SMILES): CS(=O)(=O)Nc1cccc(C=C2c3ccccc3Oc3ccccc32)c1 [Example 20, N-(3-Xanthen-9-ylidenemethyl-phenyl)-methanesulfonamide]
- Ki (glucocorticoid receptor): < 1000 nM
- Ki (MR [1]): < 500 nM

Structure (SMILES): COc1cccc(C=C2c3ccccc3Cc3ccccc32)c1 [Example 18, 9-(3-Methoxy-benzylidene)-9,10-dihydro-anthracene]
- Ki (glucocorticoid receptor): < 10000 nM
- Ki (MR [1]): < 500 nM

Structure (SMILES): CC(=O)S[C@@H]1CC2=CC(=O)CC[C@]2(C)[C@H]2CC[C@@]3(C)[C@@H](CC[C@@]34CCC(=O)O4)[C@H]12 [spironolactone]
- reduced cardiac related mortality (MR [2]): 30%
- reduced frequency of hospitalization (MR [2]): 35%

Structure (SMILES): O=c1[nH]c2cc(C=C3c4ccccc4Sc4ccccc43)ccc2n1-c1cccnc1 [Example 17]
- Ki (MR [1]): < 500 nM
